Data set [1] concerns cortisone-induced insulin resistance in Sprague Dawley rats. Kind of data set: Cortisone induced insulin resistance in rats. The class given is in vivo, rat. The settings on record: cortisone 30 mg/kg sc + 50 mg/kg po. As to the method: Animals were dosed with cortisone (30 mg/kg sc qd) in combination with test compounds for 6 days and then terminated 27 hours after the final dose of cortisone. A reference standard (Mifepristone) was also included. Cortisone 21-acetate (Sigma C-3130) was supplied by RenaSci and administered using a dose volume of 5 ml/kg via the subcutaneous route as a fine suspension in 1% methylcellulose. […] Mifepristone (Sigma M8046) was provided by RenaSci.
Glucose and insulin determinations were performed on plasma samples obtained from a tail vein bleed taken after a 12 h fast, approximately 27 h after the last cortisone dose. Animals were then terminated and a terminal (cardiac) blood sample taken from which plasma was prepared.
Thirty four male Sprague Dawley rats (weight range 200-250 g) were ordered from Charles River, Margate, Kent, UK. […] Subsequently, animals underwent a 3 day baseline period during which they were dosed once daily with vehicle at t=0 h (07:00). […] Body weight was recorded immediately before dosing began at 07:00 (t=0 h).
On Day 6 of dosing rats were fasted for 12 h beginning at 22:30 (timed to coincide with the Day 7 termination). […] At 10:30 on Day 7, 27 h after the final dose of cortisone, a blood sample (300 μl) was taken from the lateral tail vein into tubes containing EDTA (Sarstedt 16.444). The blood was centrifuged and resultant plasma aliquot stored at −75° C. The animals were euthanized by CO2 asphyxiation followed by cervical dislocation. Terminal blood (approximately 10 ml) was collected by cardiac puncture into tubes containing EDTA (Sarstedt 5 ml 32.332) and then centrifuged and plasma stored at −75° C. The tail vein plasma was analyzed for glucose (n=2) using a commercial clinical reagent (Thermoelectron Infinity glucose reagent (TR15421) and for insulin (n=1) using the Mercodia ultrasensitive rat insulin rat ELISA (10-1251-10).
Plasma glucose and insulin were analyzed by robust regression or general linear model with treatment as a factor and bleeding order and baseline body weight as covariates. A log transformation was used if appropriate. Appropriate multiple comparison tests (two-tailed) were used to determine significant differences from the vehicle group and from the Cortisone group. P<0.05 was considered to be statistically significant.

Data set [2] is described as follows: Pharmacokinetic analysis in SD rats (plasma, LC/MS/MS). The format is in vivo, rat. Particulars: 50 mg/kg P.O.; for Cmax: plasma, 50 mg/kg. As to the method: Male SD rats (weighing 250-300 g, Charles River Laboratories) were used for the experiment with n=4 rats for each experimental group. […] Blood was collected at the following time points after administration: 15, 30, 60, 90 minutes, 3, 6, 12 and 24 hours. A pre-dose sample was also collected. Animals were cannulated by technical staff at Charles River, prior to delivery at Reset. Whole blood (0.3 ml) was collected from a cannula in the right common jugular vein at each time-point. The whole blood was transferred to an EDTA tube, and then centrifuged at 5400 rpm for 5 minutes at 4° C. The resultant plasma was frozen using dry ice and then stored at −80° C. until ready for assay. 0.9% Sodium Chloride (0.3 ml) was administered for fluid replenishment after each blood draw. 0.1 ml of Sodium Heparin (500 IU/ml) was used as a lock solution after the 12 hr time-point. Samples were assayed as described above.

The text below walks through data of patent US10214507B2, “Carbazole-containing amides, carbamates, and ureas as cryptochrome modulators” (Reset Therapeutics, Inc., priority 2014, dated 2019).

Each structure is given as a SMILES string. Read-outs that look alike come from different tables or passages of the source.

Consider `O=C1NCCN1CC(O)Cn1c2ccc(F)cc2c2cc(F)ccc21` (stereo not drawn) [Compound 72, 1-(3-(3,6-difluoro-9H-carbazol-9-yl)-2-hydroxypropyl)imidazolidin-2-one], for which, in data set [1] (insulin resistant rats), the HOMA-IR is 56.94+/−11.18 units. In addition, in data set [1] (rats), the fasted plasma glucose was found to be 8.55 ± 0.3 mM and the fasted plasma insulin came out at 5.24 ± 1.1 ng/mL. Besides, the Tmax in data set [2] (male, SD, po, rat plasma) was found to be 1.7 h. Also, the half-life in data set [2] (male, SD, po, rat plasma, read-out: Elimination T1/2 (converted)) is 1.87 h. Also, the mean residence time MRT last in data set [2] (male, SD, po, rat plasma, read-out: MRT (0-last, hr)) is 4.94 h. Besides, the Cmax in data set [2] (male, SD, rat, po, rat plasma, read-out: Cmax) turned out to be 7100 ng/mL. Also, the peak concentration (Cmax) in data set [2] (male, SD, rat, po, rat, read-out: Cmax (plasma)) amounted to 7100 ng/mL. Also, the Cmax in data set [2] (male, SD, rat, po, rat, unbound, read-out: Cmax UB (plasma)) stood at 277 ng/mL. For the same compound, in data set [2] (rat plasma), the “% AUC extrapolated” value was 3.3% and the “AUC (total; ng · hr/mL)” value was determined as 57952 ng·h/mL. For the same compound, the “Unbound Plasma AUC (0-last)” value in data set [2] (rat) was 2259.

In general, Tmax refers to the time from dosing to the highest level. Usually MRT last stands for the average time that molecules of a dose stay in the body. The Cmax is the maximum level reached in the sampled fluid or tissue.
